From patent publication US11753363B2, “13-oxidized ingenol derivative and use thereof” (Tianjin Pharmaceutical Da Ren Tang Group Corp., Ltd. …, priority 2017, dated 2023)
Converted amounts (≈) assume the structure as drawn.

How the values were obtained:
Type in all cases: cell-based
[1] = tested on: A549 (human lung cancer cells); assay: Inhibition of proliferation of tumor cell lines (MTT), A549; details: Homo sapiens, A549, 72 h, read-out: IC50 value of compound for inhibition of proliferation of tumor cell lines, A549
Description: (§1) In this example, the inhibitory activity of compounds of the present invention against proliferation of seven human tumor cell lines and mouse B16-F10 melanoma cells was tested in vitro, and the IC50 value (50% inhibitory concentration) of compounds against each tumor cell line was calculated.
(§2) The seven human tumor cell lines are: MCF-7 (human breast cancer cells), LOVO (human colon cancer cells), A549 (human lung cancer cells), BGC-823 (human gastric cancer cells), SMMC-7721 (human liver cancer cells), K562 (human leukemia cells), and HeLa (human cervical cancer cells).
(§3) IC50 values of the compounds for A549, BGC-823, LOVO, MCF-7, SMMC-7721, HeLa, and B16-F10 cells were tested. The above cells were routinely cultured in 1640 nutrient solution containing 10% calf serum, with passage for 1 time every 2 days, and the cells in logarithmic growth phase were taken for experiments. After the A549, BGC-823, LOVO, MCF-7, SMMC-7721, HeLa and B16-F10 cells in logarithmic growth phase were subjected to 0.25% trypsin digestion, they were blown into a single cell suspension, and then the cell concentration was adjusted to about 1×10^5·mL^−1 using RPMI 1640 solution containing 10% calf serum. The cells were seeded in a 96-well culture plate at 100 μL per well, and cultured for 24 hours until the cells were attached. K562 cells were taken and centrifuged and diluted into 2×10^5·mL^−1 single cell suspension with RPMI 1640 solution containing 10% calf serum, and inoculated into a 96-well culture plate at 100 μL per well.
(§4) 100 μL of sample solution with different concentrations to be tested were added to the above 96-well plate, each concentration was added to 4 wells in parallel, and the cell control group was added with an equal volume of RPMI 1640 medium containing 10% calf serum to make a reaction volume of 200 μL. After incubating in an incubator at 37° C., 5% CO2 for 72 h, 10 μL of 5 mg·mL^−1 MTT solution was added to each well, and incubated at 37° C. for 4 h. The supernatant was carefully aspirated, 180 μL of DMSO was added to each well followed by shaking, and the absorbance (OD) value was measured at 570 nm on the microplate reader. The inhibition rate was calculated, and regression equation was established with the logarithmic value of the sample concentration and the inhibition rate (IR) to find the IC50 value of the compound against the cells to be tested. IR (%)=(1−OD value of the experimental group/OD value of the cell control group)×100%

[2] = tested on: MCF-7 (human breast cancer cells); assay: Inhibition of proliferation of tumor cell lines (MTT), MCF-7; details: Homo sapiens, MCF7, MCF-7, 72 h, read-out: IC50 value of compound for inhibition of proliferation of tumor cell lines, MCF-7
Description: as §1, §2, §3, §4

[3] = tested on: LOVO (human colon cancer cells); assay: Inhibition of proliferation of tumor cell lines (MTT), LOVO; details: Homo sapiens, 72 h, read-out: IC50 value of compound for inhibition of proliferation of tumor cell lines, LOVO
Description: as §1, §2, §3, §4

[4] = tested on: BGC-823 (human gastric cancer cells); assay: Inhibition of proliferation of tumor cell lines (MTT), BGC-823; details: Homo sapiens, BGC-823, 72 h, read-out: IC50 value of compound for inhibition of proliferation of tumor cell lines, BGC-823
Description: as §1, §2, §3, §4

[5] = tested on: SMMC-7721 (human liver cancer cells); assay: Inhibition of proliferation of tumor cell lines (MTT), SMMC-7721; details: Homo sapiens, SMMC-7721, 72 h, read-out: IC50 value of compound for inhibition of proliferation of tumor cell lines, SMMC-7721
Description: as §1, §2, §3, §4

[6] = tested on: K562 (human leukemia cells); assay: Inhibition of proliferation of tumor cell lines (MTT), K562; details: Homo sapiens, K562, 72 h, read-out: IC50 value of compound for inhibition of proliferation of tumor cell lines, K562
Description: as §1, §2, §3, §4

[7] = tested on: HeLa (human cervical cancer cells); assay: Inhibition of proliferation of tumor cell lines (MTT), HeLa; details: Homo sapiens, 72 h, read-out: IC50 value of compound for inhibition of proliferation of tumor cell lines, HeLA
Description: as §1, §2, §3, §4

[8] = tested on: release of IL-8 by human keratinocytes (HaCaT); assay: Release of IL-8 by human keratinocytes (HaCaT), IL-8 Elisa; details: Homo sapiens, HaCaT, 24 h, (Csample−Ccontrol)/Ccontrol×100%, read-out: Efficiency of compound in stimulating the release of IL-8 by HaCaT cells
Description: This Example investigated the effect of compound on release of IL-8 by human keratinocytes (HaCaT) and calculated the efficiency of each compound in stimulating the release of IL-8 by human keratinocytes (HaCaT).
Hacat cells were cultured in MEM+10% FBS under the conditions of 37° C., 5% CO2, and when the cells reached 80-95% fusion, they were inoculated into a 96-well culture plate (1×10^4 cells/well) at 100 μL/well, and incubated for 18-24 h. The supernatant was discarded and the cells were incubated for 3-6 h in 1% FBS medium. Different concentrations of the sample solution of compound to be tested were added to each well, and the cell control group was added with an equal volume of 1% FBS medium at 10 μL/well, and incubated for 24 h. The supernatant was taken and tested according to the operation sequence of the IL-8 Elisa kit. Calculation formula of Efficiency: Efficiency (%)=(Csample−Ccontrol)/Ccontrol×100%

[9] = tested on: neutrophilic granulocytes; assay: Neutrophil oxidative burst (luminol chemiluminescence); details: Neutrophil, rat neutrophils, (Csample−Ccontrol)/Ccontrol×100%, read-out: Efficiency of compounds in stimulating neutrophil oxidative burst; for activation at 3 µg/mL: 3 μg/mL
Description: This example investigated the effect of compound on neutrophil oxidative burst and calculated the efficiency of each compound in stimulating neutrophil oxidative burst.
Blood was taken from the abdominal aorta of rat. The neutrophilic granulocytes were isolated by the operational procedure of the rat peripheral blood neutrophil isolation kit. The neutrophilic granulocytes were re-suspended by Hanks, and were plated in a 96-well white plate at 1×10^5 cells/well, 80 μL/well; 1 mM of Luminol was added at 10 μL/well; 10 μL of the sample was added to each well, and the degree of oxidative burst was evaluated by chemiluminescence. Calculation formula of Efficiency: Efficiency (%)=(Csample−Ccontrol)/Ccontrol×100%

Compound	IC50 [1]	IC50 [2]	IC50 [3]	IC50 [4]	IC50 [5]	IC50 [6]	IC50 [7]	activation at 1 µg/mL ([8]; 1 μg/mL)	activation at 3 µg/mL [9]	activation at 0.1 µg/mL ([8]; 0.1 μg/mL)	activation at 0.1 µg/mL ([9]; 0.1 μg/mL)
C/C=C(/C)C(=O)OCC1=C[C@@H]2C(=O)[C@]3(C=C(C)[C@H](OC(=O)/C(C)=C\C)[C@@]3(O)[C@@H]1O)[C@H](C)C[C@]1(OC(=O)CCCCCCCCCCC)[C@H]2C1(C)C [Compound 15a, 3,20-O-diangeloyl-13-O-dodecanoyl-ingenol]	> 100 µg/mL	> 100 µg/mL	> 100 µg/mL	> 100 µg/mL	26.9 µg/mL (≈ 37.8 µM)	3.22 µg/mL (≈ 4.53 µM)					
CCCCCCCCCCCC(=O)O[C@@]12C[C@@H](C)[C@]34C=C(C)[C@H](O)[C@@]3(O)[C@H](O)C3(COC(=O)C(C)C(C)C)OC3[C@H](C4=O)[C@@H]1C2(C)C (stereo partly drawn) [Compound 1f, 6,7-epoxy-20-O-(2,3-dimethylbutyryl)-13-O-dodecanoyl-ingenol]							16.8 µg/mL (≈ 25.4 µM)				
C/C=C(/C)C(=O)O[C@H]1C(C)=C[C@]23C(=O)[C@@H](C=C(CO)[C@@H](O)[C@]12O)[C@@H]1C(C)(C)[C@]1(O)C[C@H]3C [Compound 3, 3-O-angeloyl-13-hydroxy-ingenol]								23.8%	65%		
CCCCCCCCCCCC(=O)O[C@@]12C[C@@H](C)[C@]34C=C(C)[C@@H]5OC(C)(C)O[C@@]53[C@H](O)C(CO)=C[C@H](C4=O)[C@@H]1C2(C)C [Compound 2c, 13-O-dodecanoyl-ingenol 3,4-acetonide]	9.59 µg/mL (≈ 16.3 µM)	8.89 µg/mL (≈ 15.1 µM)	10.3 µg/mL (≈ 17.6 µM)	5.3 µg/mL (≈ 9.03 µM)	8.21 µg/mL (≈ 14 µM)	0.42 µg/mL (≈ 0.716 µM)			64.6%		
CCCCC/C=C/C=C/C(=O)O[C@@]12C[C@@H](C)[C@]34C=C(C)[C@H](O)[C@@]3(O)[C@H](O)C(CO)=C[C@H](C4=O)[C@@H]1C2(C)C [Compound 1b, 13-O-(2′E,4′E-decadienoyl)-ingenol]	12.8 µg/mL (≈ 24.9 µM)	11.8 µg/mL (≈ 22.9 µM)	12.9 µg/mL (≈ 25.1 µM)	10.6 µg/mL (≈ 20.6 µM)	8.01 µg/mL (≈ 15.6 µM)	8.97 µg/mL (≈ 17.4 µM)					
CCCCCCCCCCCC(=O)O[C@@]12C[C@@H](C)[C@]34C=C(C)[C@H](OC(=O)CCCCC)[C@@]3(O)[C@H](O)C(CO)=C[C@H](C4=O)[C@@H]1C2(C)C [3-O-hexanoyl-13-O-dodecanoyl-ingenol]	18.5 µg/mL (≈ 28.7 µM)	14 µg/mL (≈ 21.7 µM)	16.5 µg/mL (≈ 25.6 µM)	18.3 µg/mL (≈ 28.4 µM)	16.1 µg/mL (≈ 25 µM)	< 0.2 µg/mL				66%	173%
CCCCCC(=O)O[C@@]12C[C@@H](C)[C@]34C=C(C)[C@H](O)[C@@]3(O)[C@H](O)C(CO)=C[C@H](C4=O)[C@@H]1C2(C)C [Compound 6, 13-O-n-hexanoyl-ingenol]									52.2%		
CCCCCCCCCC(=O)O[C@@]12C[C@@H](C)[C@]34C=C(C)[C@H](O)[C@@]3(O)[C@H](O)C(CO)=C[C@H](C4=O)[C@@H]1C2(C)C [Compound 1a, 13-O-decanoyl-ingenol]	15.1 µg/mL (≈ 29.1 µM)	13.8 µg/mL (≈ 26.6 µM)	9.77 µg/mL (≈ 18.8 µM)	15 µg/mL (≈ 28.9 µM)	19.5 µg/mL (≈ 37.6 µM)	0.7 µg/mL (≈ 1.35 µM)	29.1 µg/mL (≈ 56.1 µM)		65.2%		
